Measurements published in patent publication US7608640B2, “Glycine betaine and its use” (priority 2001, dated 2009).
“And” between values parts separate entries of the source, which are not always exact repeats. Identical values can stand only once.

Tests used:
[1] = Azure A method, in vitro binding of betaine to heparin
Description: This experiment utilized stock solutions of azure A, heparin, betaine, and a betaine-heparin combination in order to determine in vitro binding of betaine to Heparin. The stock solution of azure A was prepared at 4×10^−5 mol L^−1 by solubilizing 58.35 mg azure A in 50 ml of sterile injectable water. Next, 10 ml of this solution was diluted in 90 ml of sterile injectable water. The resulting solution was diluted again by taking 10 ml of this solution and diluting it in 90 ml of sterile injectable water. Finally, the resulting solution is filtered on Watman paper and aliquots of 4 ml are realized. The stock solution of Heparin was prepared by diluting the manufacturer-supplied stock solution (5000 UI/ml having ±150 UI/mg), (LEO Pharma, Ballerup, Denmark). One ml of this supplied solution was diluted in 499 ml of sterile injectable water in order to obtain a 10 UI/ml in final concentration. The betaine stock solution was prepared by diluting betaine in sterile injectable water in order to obtain a final concentration of 10 mg/ml. The Heparin-betaine combination stock solution was prepared by mixing 12 ml of the betaine stock solution prepared as noted above with 14.4 ml of the manufacturer-supplied Heparin stock solution (corresponding to 120 mg of betaine and 480 mg Heparin). This mixture was agitated for 2 minutes while mixing and then incubated for 10 minutes at 20° C. The final combination solution is then prepared by taking 1 ml of the solution after incubation and diluting it in 499 ml of sterile injectable water.
Each stock solution was then tested at six dilutions for its effect on heparin binding to azure A dye. The first dilution consisted of 0 μl solution, 400 μl water and 4 ml azure A solution. The second dilution consisted of 80 μl solution, 320 μl water and 4 ml azure A solution. The third dilution consisted of 160 μl solution, 240 μl water and 4 ml azure A solution. The fourth dilution consisted of 240 μl solution, 160 μl water and 4 ml azure A solution. The fifth dilution consisted of 320 μl solution, 80 μl water and 4 ml azure A solution. The sixth dilution consisted of 400 μl solution, 0 μl water and 4 ml azure A solution. Each dilution was then subjected to the azure A method which is a rapid and simple spectrophotometric method for determining heparin concentration following the formation of a soluble complex between heparin and azure A dye. Chemically, azure A is formed by 3 benzene nuclei and a terminal N^+. This soluble complex changes the typically blue color of the azure dye to purple. The principle of the test is based on the spectrophotometric absorption of the heparin/azure A dye complex at 632 nm. Heparin binding to azure A results in lowered absorbance and the solution gradually turns deeper purple as heparin concentration increases. In the presence of a substance which binds to heparin (e.g., protamine), azure A retains its blue color and absorbance remains constant. The results of this test are provided in the following table which illustrates that no significant change in the absorbance of azure A occurs when betaine is combined with heparin. However, Heparin alone has a significant effect on azure A absorption.

[2] = test system: coagulation (Fibrinogen, APTT, Prothrombin Time, Anti-Xa activity); assay: Plasma fibrinogen, APTT, prothrombin time and anti-Xa in heparinized rat; assay type: in vivo; details: Example 37
Source text: This example investigated the effect of delayed betaine administration in an antidote type administration inhibited the bleeding time and volume of blood loss induced by heparin treatment in a rat. Twenty male Wistar rats were purchased from Charles River, France and were acclimated for one week prior to the tests. Each rat was weighed prior to testing (weights ranged from 240-340 g with a mean weight of 275 g) and divided into 2 groups of 10 animals each. One group received an injection of heparin (5 mg/kg) at T0. The second group received a heparin injection (5 mg/kg) at T0, and a betaine injection (10 mg/kg) at T0+30 minutes. Both groups were subjected to a bleeding test at T0+60 minutes. The testing was performed using the previously described methodology with slight modifications. The tails were sectioned at 5-8 mm from the extremity. After transection, the proximal end of the tail was placed in a tube and blood was permitted to drip freely into a reservoir of 3.8% citrate solution (1 ml) until bleeding stopped. Blood loss volumes were then determined using a 1000 μl pipette. At the end of the experiments, before euthanasia, blood was sampled by intracardiac puncture on Na-citrate (3.8%, 1:9) and centrifuged at 4000 rpm/min for 20 minutes in order to obtain Poor Platelet Plasma (PPP). Fibrinogen, APTT, Prothrombin Time (Quick) and Anti-Xa activity were determined using an Automatic Coagulation Laboratory ACL 200 (Instrumentation Laboratory, France). […] Betaine efficiency to reduce bleeding times was confirmed. The effect on the haemorrhage was also confirmed since there was a very significant reduction of the blood loss volumes when compared to the heparin group. The delayed administration of betaine after heparin treatment, designed to mimic an antidote mode of administration, almost restored the bleeding times and the volumes of blood loss in the 10 betaine-treated animals to normal.

[3] = Heparin UI/ml (reference) 2, second dilution, 80 μl stock solution
[4] = Heparin UI/ml (reference) 4, third dilution, 160 μl stock solution
[5] = Heparin UI/ml (reference) 6, fourth dilution, 240 μl stock solution
[6] = Heparin UI/ml (reference) 8, fifth dilution, 320 μl stock solution
[7] = Heparin UI/ml (reference) 10, sixth dilution, 400 μl stock solution
[8] = betaine 10 mg/kg 30 minutes after heparin 5 mg/kg
[9] = heparin 5 mg/kg at T0, betaine 10 mg/kg at T0+30 minutes

Compound	Absorbance of azure A at 632 nm [1, 3]	Absorbance of azure A at 632 nm [1, 4]	Absorbance of azure A at 632 nm [1, 5]	Absorbance of azure A at 632 nm [1, 6]	Absorbance of azure A at 632 nm [1, 7]	APTT prolongation despite betaine administration [2, 8]	Animals with normalized Prothrombin times [2, 8]	Fibrinogen level change versus heparin [2, 8] [%]	Fibrinogen level change versus the control [2, 8] [%]	Reduction of Anti-Xa activity, antidote group compared to the heparin group [2, 8] [%]	APTT, Mean [2, 9] [s]	APTT, individual rats [2, 9] [s]	Anti-Xa, Mean [2, 9] [IU/ml]	Anti-Xa, individual rats [2, 9]	Fibrinogen, Mean [2, 9] [g/L]	Fibrinogen, individual rats [2, 9]	Quick (Prothrombin Time), Mean [2, 9] [s]	Quick (Prothrombin Time), individual rats [2, 9]
C[N+](C)(C)CC(=O)O [Glycine betaine]	1.241	1.213	1.1937	1.1612	1.154	up to 6 ×	8 out of 10	−10	−23	74	–	–	–	–	–	–	–	–
Heparin	1.0608	0.8399	0.5797	0.358	0.205	–	–	–	–	–	>180	>180	1.37	1.35 IU/ml (2×) and 1.38 IU/ml (2×) and 1.37 IU/ml (2×) and 1.34 IU/ml and 1.41 IU/ml and 1.39 IU/ml (2×)	1.82	2.15 g/L and 1.77 g/L and 2.1 g/L and 1.53 g/L and 1.62 g/L and 2.0 g/L and 1.55 g/L and 1.67 g/L and 1.57 g/L and 2.2 g/L	61.07	52.3 s and 57.4 s and 55.3 s and 66.2 s and 66.0 s and 59.6 s and 64.6 s and 67.2 s and 62.2 s and 59.9 s
